In patent US4065356A, “Production of antibiotic FR-02A (efrotomycin) by streptomyces lactamdurans” (priority 1977, dated 1977):
Structures can show the parent of a compound that is named as a salt.

Assay: solubility
Type: physicochemical

| solubility in water-immiscible organic solvents (water-immiscible organic solvents) | Structure (SMILES) | solubility in alcohol and chloroform (ammonium salt, alcohol and chloroform) | solubility in water (ammonium salt, water at pH 7.0 or higher) |
| --- | --- | --- | --- |
| virtually insoluble | CO[C@@]1(NC(=O)CCC[C@@H](N)C(=O)O)C(=O)N2C(C(=O)O)=C(COC(N)=O)CS[C@@H]21 [Cephamycin C, reference compound] |  |  |
|  | CC=CC=CC1OC(O)(C(CC)C(=O)NCC=CC=C(C)C(OC)C(C)C2OC(C=CC=CC=C(C)C(=O)c3c(O)ccn(C)c3=O)C(O)C2O)C(O)C(OC2OC(C)C(OC3OC(C)C(OC)C(O)C3OC)C(OC)C2O)C1(C)C (stereo not drawn) [FR-02A as the ammonium salt] | soluble | moderately soluble |
